Source: patent US12564554B2, “Co-amorphous forms of beta-lactoglobulin and a drug substance” (DISPERSOME IP APS, priority 2019, dated 2026)

Test: mDSC measurement of the glass transition temperature (Tg)
Type: physicochemical
Details: freshly prepared, ball milled (Table 2)
Method: The mDSC thermograms of the samples were collected using a Discovery DSC (TA instruments, New Castle, USA) under a nitrogen gas flow of 50 ml/min. The samples containing Compound A, Compound B and IND were analysed at a heating rate of 2° C./min from 25° C. to 200° C., with an underlying modulation temperature amplitude of 0.2120° C. and a period of 40 s. For the remaining samples the same heating rate, amplitude and period were applied. Samples containing compounds APA, BDQ, RIF and VNX were heated from 25° C. to 250° C., and samples containing Compound RIT were heated from 0° C. to 170° C. A total of 4-8 mg sample powder was filled into aluminium Tzero pans and sealed with an aluminium Tzero lid. The glass transition temperature (Tg) was determined as the midpoint from the reversing heat flow signal.

| Tg [°C] | Molecule |
| --- | --- |
| 97.4 | CNC(=O)c1ccc(N2C(=S)N(c3cnc(C#N)c(C(F)(F)F)c3)C(=O)C23CCC3)cc1F [Pure amorphous APA, Apalutamide] |
| 79.4 | bedaquiline fumarate [Pure amorphous BDQ] |
| 41.7 | CC(C)c1nc(CN(C)C(=O)N[C@H](C(=O)N[C@@H](Cc2ccccc2)C[C@H](O)[C@H](Cc2ccccc2)NC(=O)OCc2cncs2)C(C)C)cs1 [Pure amorphous RIT, ritonavir] |
| 194.4 | CO[C@H]1/C=C/O[C@@]2(C)Oc3c(C)c(O)c4c(O)c(c5c(nc6cc(C)ccn65)c4c3C2=O)NC(=O)/C(C)=C\C=C\[C@H](C)[C@H](O)[C@@H](C)[C@@H](O)[C@@H](C)[C@H](OC(C)=O)[C@@H]1C [Pure amorphous RIF, rifaximin] |
